Results taken from ChEMBL document CHEMBL1201862, “PubChem BioAssay data set” (2004).
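Briefly, cells in 96-well plates were exposed to five compound concentrations for 48 h, and endpoints were estimated by linear interpolation. Here, GI50 denotes the concentration required for 50% inhibition of growth.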 The source made the active and inactive calls. Cut-off read from the data, not from the text of the source: active = GI50 up to about 1.1 µM and inactive = higher.

Key:
Assay in all cases: growth of human tumour cells (NCI), 48 h
[1] = system: KM12
[2] = system: CCRF-CEM
[3] = system: HOP-92
[4] = system: HCC 2998
[5] = system: UACC-62
[6] = system: SK-MEL-28
[7] = system: SW-620
[8] = system: HOP-62
[9] = system: RXF 393
[10] = system: A498
[11] = system: SK-MEL-5
[12] = system: HCT-116
[13] = system: NCI/ADR-RES
[14] = system: K562
[15] = system: OVCAR-8
[16] = system: SN12C
[17] = system: RPMI-8226
[18] = system: OVCAR-4
[19] = system: SF-268
[20] = system: MOLT-4
[21] = system: SNB-19
[22] = system: PC-3
[23] = system: Hs-578T
[24] = system: M14
[25] = system: UACC-257
[26] = system: A549
[27] = system: OVCAR-3
[28] = system: MDA-N
[29] = system: IGROV-1
[30] = system: SK-OV-3
[31] = system: BT-549
[32] = system: U-251
[33] = system: HL-60
[34] = system: T47D
[35] = system: SK-MEL-2
[36] = system: HCT-15
[37] = system: NCI-H226
[38] = system: MDA-MB-435
[39] = system: SF-539
[40] = system: EKVX
[41] = system: LOX IMVI
[42] = system: MDA-MB-231
[43] = system: OVCAR-5
[44] = system: TK-10
[45] = system: SF-295
[46] = system: ACHN
[47] = system: SR
[48] = system: COLO 205
[49] = system: DU-145
[50] = system: NCI-H460
[51] = system: CAKI-1
[52] = system: NCI-H522
[53] = system: SNB-75
[54] = system: UO-31
[55] = system: HT-29
[56] = system: 786-0
[57] = system: NCI-H23
[58] = system: MCF7
[59] = system: Malme-3M

## C[As](C)SCC(NC(=O)CCC(N)C(=O)O)C(=O)NCC(=O)O.c1ccncc1 (centres undefined)
[1]
  GI50: 361 nM (active)
[2]
  GI50: 49.2 nM (active)
[3]
  GI50: 84.3 nM (active)
[4]
  GI50: 188 nM (active)
[5]
  GI50: 269 nM (active)
[6]
  GI50: 421 nM (active)
[7]
  GI50: 85.5 nM (active)
[8]
  GI50: 885 nM (active)
[9]
  GI50: 47.1 nM (active)
[10]
  GI50: 437 nM (active)
[11]
  GI50: 96.6 nM (active)
[12]
  GI50: 198 nM (active)
[13]
  GI50: 141 nM (active)
[14]
  GI50: 26.6 nM (active)
[15]
  GI50: 231 nM (active)
[16]
  GI50: 506 nM (active)
[17]
  GI50: 42.1 nM (active)
[18]
  GI50: 592 nM (active)
[19]
  GI50: 547 nM (active)
[20]
  GI50: 3510 nM (inactive)
[21]
  GI50: 3680 nM (inactive)
[22]
  GI50: 268 nM (active)
[23]
  GI50: 336 nM (active)
[24]
  GI50: 220 nM (active)
[25]
  GI50: 459 nM (active)
[26]
  GI50: 984 nM (active)
[27]
  GI50: 39.9 nM (active)
[28]
  GI50: 43.1 nM (active)
[29]
  GI50: 1420 nM (inactive)
[30]
  GI50: 7310 nM (inactive)
[31]
  GI50: 168 nM (active)
[32]
  GI50: 902 nM (active)
[33]
  GI50: 57.8 nM (active)
[34]
  GI50: 93.8 nM (active)
[35]
  GI50: 338 nM (active)
[36]
  GI50: 70.2 nM
[37]
  GI50: 361 nM (active)
[38]
  GI50: 84.3 nM (active)
[39]
  GI50: 105 nM (active)
[40]
  GI50: 182 nM (active)
[41]
  GI50: 180 nM (active)
[42]
  GI50: 261 nM (active)
[43]
  GI50: 436 nM (active)
[44]
  GI50: 202 nM (active)
[45]
  GI50: 3230 nM (inactive)
[46]
  GI50: 117 nM (active)
[47]
  GI50: 20 nM (active)
[48]
  GI50: 105 nM (active)
[49]
  GI50: 86.7 nM (active)
[50]
  GI50: 2380 nM (inactive)
[51]
  GI50: 66.2 nM (active)
[52]
  GI50: 82.4 nM (active)
[53]
  GI50: 2700 nM (inactive)
[54]
  GI50: 182 nM (active)
[55]
  GI50: 431 nM (active)
[56]
  GI50: 89.1 nM (active)
[57]
  GI50: 284 nM (active)
[58]
  GI50: 126 nM (active)
[59]
  GI50: 38.9 nM (active)
